As a reminder, the IC50 is the concentration needed to halve the response being measured. Usually viability, T/C stands for the result in the treated group divided by that in the control group, in per cent.

Molecules are shown by their SMILES. Values joined by “and” are separate entries in the source; they are usually repeats but may differ in a detail not shown here. Equal values may be shown once. Bounds are passed on as bounds.

This test has as its system PC-3 multi-cell spheroids, viability. Description: Anticancer human tumor PC-3 cell line growth inhibition [IpAb].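 For all read-outs here: spheroids exposed to compounds for 7 days before readout.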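 For viability, T/C: 100% = DMSO vehicle control wells.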 To be noted: for viability, T/C: stronger effect = lower value. The essentials:
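Spheroids of 60% malignant cells, 25% HUVEC and 15% MSC were exposed to targeted agents combined with ipatasertib or abemaciclib. Doses started at or near clinical Cmax (10 microM when unknown) and fell in half-log steps.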

Where [1] appears, read: curve of first compound, second compound 0.1 µM.
[2] abbreviates: curve of first compound, second compound 0.316 µM.
The mark [3] stands for this setting: curve of first compound, second compound 1 µM.
Where [4] appears, read: curve of first compound, second compound 3.16 µM.
[5] abbreviates: curve of first compound, second compound 10 µM.
[6] abbreviates: second compound 0.1 µM, first compound 0.0316 µM.
The mark [7] stands for this setting: second compound 0.1 µM, first compound 0.1 µM.
Setting [8] is: second compound 0.1 µM, first compound 0.316 µM.
[9] abbreviates: second compound 0.1 µM, first compound 1 µM.
[10] abbreviates: second compound 0.316 µM, first compound 0.0316 µM.
[11] abbreviates: second compound 0.316 µM, first compound 0.1 µM.
Where [12] appears, read: second compound 0.316 µM, first compound 0.316 µM.
Setting [13] is: second compound 0.316 µM, first compound 1 µM.
[14] abbreviates: second compound 1 µM, first compound 0.0316 µM.
[15] abbreviates: second compound 1 µM, first compound 0.1 µM.
Where [16] appears, read: second compound 1 µM, first compound 0.316 µM.
Setting [17] is: second compound 1 µM, first compound 1 µM.

Regarding `COc1c(OCCCN2CCOCC2)ccc2c3n(c(=NC(=O)c4cnc(N)nc4)nc12)CCN3` + CC(C)NCC(C(=O)N1CCN(c2ncnc3c2C(C)CC3O)CC1)c1ccc(Cl)cc1, the IC50 under setting [1] is 21.4 nM; the IC50 under setting [2] is below 3.16 nM; the IC50 under setting [3] is below 3.16 nM; the half-maximal inhibitory concentration (IC50) under setting [4] is below 3.16 nM; the IC50 under setting [5] was below 3.16 nM. The viability, T/C runs as follows: (second compound 0.1 µM, first compound 0.00316 µM) 81.5%; (second compound 0.1 µM, first compound 0.01 µM) 59.7%; under setting [6], 48.1%; under setting [7], 18%; under setting [8], 6.89%; under setting [9], 4.7%. Besides, the viability, T/C reads like this: (second compound 0.316 µM, first compound 0.00316 µM) 45.1%; (second compound 0.316 µM, first compound 0.01 µM) 40%; under setting [10], 29.5%; under setting [11], 12.2%; under setting [12], 5.71%; under setting [13], 4.51%. In addition, the viability, T/C runs as follows: (second compound 1 µM, first compound 0.00316 µM) 24.3%; (second compound 1 µM, first compound 0.01 µM) 18.7%; under setting [14], 14%; under setting [15], 8.53%; under setting [16], 5.57%; under setting [17], 4.27%. Further, the viability, T/C (second compound 3.16 µM, first compound 0.00316 µM) is 15.1%; the viability, T/C (second compound 3.16 µM, first compound 0.01 µM) was 12.5%; the viability, T/C (second compound 3.16 µM, first compound 0.0316 µM) was 11.1%; the viability, T/C (second compound 3.16 µM, first compound 0.1 µM) is 7.88%; the viability, T/C (second compound 3.16 µM, first compound 0.316 µM) is 4.58%; the viability, T/C (second compound 3.16 µM, first compound 1 µM) was 3.91%. The viability, T/C runs as follows: (second compound 10 µM, first compound 0.00316 µM) 12.8%; (second compound 10 µM, first compound 0.01 µM) 11.5%; (second compound 10 µM, first compound 0.0316 µM) 10.3%; (second compound 10 µM, first compound 0.1 µM) 6.13%; (second compound 10 µM, first compound 0.316 µM) 4.33%; (second compound 10 µM, first compound 1 µM) 4.03%.

As to `CCCS(=O)(=O)Nc1ccc(F)c(C(=O)c2c[nH]c3ncc(-c4ccc(Cl)cc4)cc23)c1F`, the viability, T/C by setting is: (compound 0.0316 µM) 118% and 111%; (compound 0.1 µM) 106% and 99.5%; (compound 0.316 µM) 114% and 111%; (compound 1 µM) 111% and 101%; (compound 3.16 µM) 118% and 112%; (compound 10 µM) 72.7% and 67.1%. Also, under “curve of compound”, the half-maximal inhibitory concentration (IC50) was above 10000 nM.

For the compound `Cn1cnc2c(F)c(Nc3ccc(Br)cc3Cl)c(C(=O)NOCCO)cc21` + CC(C)NCC(C(=O)N1CCN(c2ncnc3c2C(C)CC3O)CC1)c1ccc(Cl)cc1, the IC50 under setting [1] is above 3000 nM; the IC50 under setting [2] is below 9.49 nM; the concentration for half-maximal inhibition (IC50) under setting [3] is below 9.49 nM; the concentration for half-maximal inhibition (IC50) under setting [4] was below 9.49 nM; the concentration for half-maximal inhibition (IC50) under setting [5] is below 9.49 nM. Besides, the viability, T/C is, setting by setting: (second compound 0.1 µM, first compound 0.00949 µM) 83.2%; (second compound 0.1 µM, first compound 0.03 µM) 73.6%; (second compound 0.1 µM, first compound 0.0949 µM) 88.3%; (second compound 0.1 µM, first compound 0.3 µM) 78.9%; (second compound 0.1 µM, first compound 0.949 µM) 70%; (second compound 0.1 µM, first compound 3 µM) 55.6%. For the same compound, the viability, T/C by setting is: (second compound 0.316 µM, first compound 0.00949 µM) 46.5%; (second compound 0.316 µM, first compound 0.03 µM) 45%; (second compound 0.316 µM, first compound 0.0949 µM) 47.3%; (second compound 0.316 µM, first compound 0.3 µM) 44.5%; (second compound 0.316 µM, first compound 0.949 µM) 45%; (second compound 0.316 µM, first compound 3 µM) 37.1%. Also, the viability, T/C is, setting by setting: (second compound 1 µM, first compound 0.00949 µM) 25.6%; (second compound 1 µM, first compound 0.03 µM) 27.1%; (second compound 1 µM, first compound 0.0949 µM) 24.1%; (second compound 1 µM, first compound 0.3 µM) 20.8%; (second compound 1 µM, first compound 0.949 µM) 19.9%; (second compound 1 µM, first compound 3 µM) 17.6%. Moreover, the viability, T/C reads like this: (second compound 3.16 µM, first compound 0.00949 µM) 8.45%; (second compound 3.16 µM, first compound 0.03 µM) 6.53%; (second compound 3.16 µM, first compound 0.0949 µM) 7.72%; (second compound 3.16 µM, first compound 0.3 µM) 7.02%; (second compound 3.16 µM, first compound 0.949 µM) 8%; (second compound 3.16 µM, first compound 3 µM) 6.09%. Further, the viability, T/C is, setting by setting: (second compound 10 µM, first compound 0.00949 µM) 12.9%; (second compound 10 µM, first compound 0.03 µM) 12.2%; (second compound 10 µM, first compound 0.0949 µM) 11.5%; (second compound 10 µM, first compound 0.3 µM) 12.1%; (second compound 10 µM, first compound 0.949 µM) 11.4%; (second compound 10 µM, first compound 3 µM) 10.7%.

Take `CCN1CCN(Cc2ccc(Nc3ncc(F)c(-c4cc(F)c5nc(C)n(C(C)C)c5c4)n3)nc2)CC1`: the IC50 (compound alone, run of 44348) is > 1000 nM and 502 nM.

Consider `CC1(C)CCC(CN2CCN(c3ccc(C(=O)NS(=O)(=O)c4ccc(NCC5CCOCC5)c([N+](=O)[O-])c4)c(Oc4cnc5[nH]ccc5c4)c3)CC2)=C(c2ccc(Cl)cc2)C1` + CCN1CCN(Cc2ccc(Nc3ncc(F)c(-c4cc(F)c5nc(C)n(C(C)C)c5c4)n3)nc2)CC1, for which the IC50 stood at 5520 nM (curve of first compound, second compound 0.01 µM); 4540 nM (curve of first compound, second compound 0.0316 µM); 4190 nM under setting [1]; 3980 nM under setting [2]; 1280 nM under setting [3]. For the same compound, the viability, T/C is, setting by setting: (second compound 0.01 µM, first compound 0.0316 µM) 102%; (second compound 0.01 µM, first compound 0.1 µM) 101%; (second compound 0.01 µM, first compound 0.316 µM) 107%; (second compound 0.01 µM, first compound 1 µM) 98.1%; (second compound 0.01 µM, first compound 3.16 µM) 93.2%; (second compound 0.01 µM, first compound 10 µM) 4%. Moreover, the viability, T/C by setting is: (second compound 0.0316 µM, first compound 0.0316 µM) 73.1%; (second compound 0.0316 µM, first compound 0.1 µM) 71.5%; (second compound 0.0316 µM, first compound 0.316 µM) 73.6%; (second compound 0.0316 µM, first compound 1 µM) 64.8%; (second compound 0.0316 µM, first compound 3.16 µM) 71.4%; (second compound 0.0316 µM, first compound 10 µM) 4.41%. Moreover, the viability, T/C is 65.9% under setting [6]; 66% under setting [7]; 58.7% under setting [8]; 64.2% under setting [9]; 70.1% (second compound 0.1 µM, first compound 3.16 µM); 3.35% (second compound 0.1 µM, first compound 10 µM). Besides, the viability, T/C was 62.9% under setting [10]; 70.4% under setting [11]; 66.3% under setting [12]; 61.7% under setting [13]; 61.9% (second compound 0.316 µM, first compound 3.16 µM); 3.28% (second compound 0.316 µM, first compound 10 µM). In addition, the viability, T/C was 60.8% under setting [14]; 60.2% under setting [15]; 54.3% under setting [16]; 51.8% under setting [17]; 41.5% (second compound 1 µM, first compound 3.16 µM); 4.98% (second compound 1 µM, first compound 10 µM).

The record behind these values is PubChem BioAssay AID2060327 (Molecular Pharmacology Branch, DTP, NCI, 2025).
